Reference: patent publication US20020137929A1, “1 - (3-heterocyclylphenyl) isothiourea, -isourea, -guanidine and -amidine herbicidal agents” (Intellectual Property Department, BASF Aktiengesellschaft, priority 1998, published 2002)

Assays:
ABUTH (Velvetleaf) = assay: Postemergence herbicidal evaluation; assay type: in vivo, Abutilon theophrasti
Method in brief: (§1)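 ~2-wk seedlings; postemergence spray, 40 psi; vehicle 1:1 acetone:water + 0.5% Tween 20; rate ≈0.0156–0.500 kg/ha; greenhouse hold; scored 4–5 wk after treatment, 0–9 scale vs control; repeat tests averaged.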

AMBEL (Ragweed, Common) = assay: Postemergence herbicidal evaluation; assay type: in vivo, Ambrosia artemisifolia
Method in brief: as §1

[1] = tested on: IPOHE (Morningglory, Ivyleaf); assay: Postemergence herbicidal evaluation; assay type: in vivo, Ipomoea hederacea
Method in brief: as §1

ECHCG (Barnyardgrass) [2] = assay: Postemergence herbicidal evaluation; assay type: in vivo, Echinochloa crus-galli
Method in brief: as §1

SETVI (Foxtail, Green) = assay: Postemergence herbicidal evaluation; assay type: in vivo, Setaria viridis
Method in brief: as §1

[3] = tested on: GLXMAW (Soybean, Williams); assay: Postemergence herbicidal evaluation; assay type: in vivo, Glycine max, (L.) Merr. cv Williams
Method in brief: as §1

[4] = tested on: TRZAWR (Wheat, Winter, cv Riband); assay: Postemergence herbicidal evaluation; assay type: in vivo, Triticum aestivum
Method in brief: as §1

CASOB (Sicklepod) = assay: Preemergence herbicidal evaluation; assay type: in vivo, Cassia obtusifolia; details: rated 4-5 weeks after treatment
Method in brief: (§2)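 Visual 0-9 rating vs control (stand, vigor, malformation, size, chlorosis, overall appearance), scored 4-5 wk after spraying. Seeded soil cups were treated preemergence with compound in aqueous acetone, ~0.0156-0.500 kg/ha equivalent.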

[5] = tested on: CHEAL (Lambsquarters, Common); assay: Preemergence herbicidal evaluation; assay type: in vivo, Chenopodium album; details: rated 4-5 weeks after treatment
Method in brief: as §2

GALAP (Galium) = assay: Preemergence herbicidal evaluation; assay type: in vivo, Galium aparine; details: rated 4-5 weeks after treatment
Method in brief: as §2

[6] = tested on: IPOHE (Morningglory, Ivyleaf); assay: Preemergence herbicidal evaluation; assay type: in vivo, Ipomoea hederacea; details: rated 4-5 weeks after treatment
Method in brief: as §2

ECHCG (Barnyardgrass) [7] = assay: Preemergence herbicidal evaluation; assay type: in vivo, Echinochloa crus-galli; details: rated 4-5 weeks after treatment
Method in brief: as §2

ZEAMX (Corn, Field) = assay: Preemergence herbicidal evaluation; assay type: in vivo, Zea mays; details: rated 4-5 weeks after treatment
Method in brief: as §2

[8] = tested on: ECHORC (Watergrass (Calif.)); assay: Postemergence weed control under flooded paddy conditions; assay type: in vivo, Echinochloa oryzoides; details: postemergence weeds, rated 3 to 4 weeks after treatment
Method in brief: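 Flood-water application, about 0.0313–0.500 kg/ha a.i. in aqueous/acetone 50/50 v/v; water depth 1.5–3 cm throughout. Weeds 3–5 cm, rice 1.5–2.5 leaf. Greenhouse; 0–9 visual rating vs control at 3–4 wk.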

`C=CCN1C(=O)C(CC(=O)OC)SC1=Nc1cc(-n2c(=O)cc(C(F)(F)F)n(C)c2=O)c(F)cc1Cl` (stereo not drawn) [Compound 64, Methyl 3-allyl-2-{{2-chloro-5-[3,6-dihydro-3-methyl-2,6-dioxo-4-(trifluoromethyl)-1(2H)-pyrimidinyl]-4-fluorophenyl}imino}-4-oxo-5-thiazolidineacetate] was tested, and the “Postemergence herbicidal rating ABUTH” value (ABUTH (Velvetleaf); Rate 0.0158 kg/ha) was 9.0, the “Postemergence herbicidal rating ABUTH” value (ABUTH (Velvetleaf); Rate 0.0315 kg/ha) was 9.0 and the “Postemergence herbicidal rating ABUTH” value (ABUTH (Velvetleaf); Rate 0.0630 kg/ha) was 9.0. For the same compound, the “Postemergence herbicidal rating AMBEL” value (AMBEL (Ragweed, Common); Rate 0.0158 kg/ha) was 9.0, the “Postemergence herbicidal rating AMBEL” value (AMBEL (Ragweed, Common); Rate 0.0315 kg/ha) was 9.0 and the “Postemergence herbicidal rating AMBEL” value (AMBEL (Ragweed, Common); Rate 0.0630 kg/ha) was 9.0. For the same compound, the “Postemergence herbicidal rating IPOHE” value ([1]; Rate 0.0158 kg/ha) was 9.0, the “Postemergence herbicidal rating IPOHE” value ([1]; Rate 0.0315 kg/ha) was 9.0 and the “Postemergence herbicidal rating IPOHE” value ([1]; Rate 0.0630 kg/ha) was 9.0. For the same compound, the “Postemergence herbicidal rating ECHCG” value (ECHCG (Barnyardgrass) [2]; Rate 0.0158 kg/ha) was 3.0, the “Postemergence herbicidal rating ECHCG” value (ECHCG (Barnyardgrass) [2]; Rate 0.0315 kg/ha) was 5.0 and the “Postemergence herbicidal rating ECHCG” value (ECHCG (Barnyardgrass) [2]; Rate 0.0630 kg/ha) was 7.0. The “Postemergence herbicidal rating SETVI” value (SETVI (Foxtail, Green); Rate 0.0158 kg/ha) was 6.0, the “Postemergence herbicidal rating SETVI” value (SETVI (Foxtail, Green); Rate 0.0315 kg/ha) was 7.0 and the “Postemergence herbicidal rating SETVI” value (SETVI (Foxtail, Green); Rate 0.0630 kg/ha) was 9.0. The “Postemergence herbicidal rating GLXMAW” value ([3]; Rate 0.0158 kg/ha) was 7.0, the “Postemergence herbicidal rating GLXMAW” value ([3]; Rate 0.0315 kg/ha) was 7.5 and the “Postemergence herbicidal rating GLXMAW” value ([3]; Rate 0.0630 kg/ha) was 7.5. For the same compound, the “Postemergence herbicidal rating TRZAWR” value ([4]; Rate 0.0158 kg/ha) was 6.0, the “Postemergence herbicidal rating TRZAWR” value ([4]; Rate 0.0315 kg/ha) was 6.0 and the “Postemergence herbicidal rating TRZAWR” value ([4]; Rate 0.0630 kg/ha) was 7.0. For the same compound, the “Preemergence herbicidal rating CASOB” value (CASOB (Sicklepod); rate 0.0156 kg/ha) was 0.0, the “Preemergence herbicidal rating CASOB” value (CASOB (Sicklepod); rate 0.0313 kg/ha) was 0.0 and the “Preemergence herbicidal rating CASOB” value (CASOB (Sicklepod); rate 0.0625 kg/ha) was 1.0. For the same compound, the “Preemergence herbicidal rating CASOB” value (CASOB (Sicklepod); rate 0.1250 kg/ha) was 5.0, the “Preemergence herbicidal rating CASOB” value (CASOB (Sicklepod); rate 0.2500 kg/ha) was 4.0 and the “Preemergence herbicidal rating CHEAL” value ([5]; rate 0.0156 kg/ha) was 9.0. For the same compound, the “Preemergence herbicidal rating CHEAL” value ([5]; rate 0.0313 kg/ha) was 9.0, the “Preemergence herbicidal rating CHEAL” value ([5]; rate 0.0625 kg/ha) was 9.0 and the “Preemergence herbicidal rating CHEAL” value ([5]; rate 0.1250 kg/ha) was 9.0. The “Preemergence herbicidal rating CHEAL” value ([5]; rate 0.2500 kg/ha) was 9.0, the “Preemergence herbicidal rating GALAP” value (GALAP (Galium); rate 0.0156 kg/ha) was 0.0 and the “Preemergence herbicidal rating GALAP” value (GALAP (Galium); rate 0.0313 kg/ha) was 0.0. The “Preemergence herbicidal rating GALAP” value (GALAP (Galium); rate 0.0625 kg/ha) was 1.0, the “Preemergence herbicidal rating GALAP” value (GALAP (Galium); rate 0.2500 kg/ha) was 7.0 and the “Preemergence herbicidal rating IPOHE” value ([6]; rate 0.0156 kg/ha) was 0.0. The “Preemergence herbicidal rating IPOHE” value ([6]; rate 0.0313 kg/ha) was 0.0, the “Preemergence herbicidal rating IPOHE” value ([6]; rate 0.0625 kg/ha) was 9.0 and the “Preemergence herbicidal rating IPOHE” value ([6]; rate 0.1250 kg/ha) was 9.0. The “Preemergence herbicidal rating IPOHE” value ([6]; rate 0.2500 kg/ha) was 9.0, the “Preemergence herbicidal rating ECHCG” value (ECHCG (Barnyardgrass) [7]; rate 0.0156 kg/ha) was 0.0 and the “Preemergence herbicidal rating ECHCG” value (ECHCG (Barnyardgrass) [7]; rate 0.0313 kg/ha) was 0.0. The “Preemergence herbicidal rating ECHCG” value (ECHCG (Barnyardgrass) [7]; rate 0.0625 kg/ha) was 1.0, the “Preemergence herbicidal rating ECHCG” value (ECHCG (Barnyardgrass) [7]; rate 0.1250 kg/ha) was 3.0 and the “Preemergence herbicidal rating ECHCG” value (ECHCG (Barnyardgrass) [7]; rate 0.2500 kg/ha) was 6.0. For the same compound, the “Preemergence herbicidal rating ZEAMX” value (ZEAMX (Corn, Field); rate 0.0156 kg/ha) was 0.0, the “Preemergence herbicidal rating ZEAMX” value (ZEAMX (Corn, Field); rate 0.0313 kg/ha) was 0.0 and the “Preemergence herbicidal rating ZEAMX” value (ZEAMX (Corn, Field); rate 0.0625 kg/ha) was 1.0. The “Preemergence herbicidal rating ZEAMX” value (ZEAMX (Corn, Field); rate 0.1250 kg/ha) was 3.0, the “Preemergence herbicidal rating ZEAMX” value (ZEAMX (Corn, Field); rate 0.2500 kg/ha) was 7.0 and the “Herbicidal rating ECHORC” value ([8]; Rate 0.0313 kg/ha) was 5.0. The “Herbicidal rating ECHORC” value ([8]; Rate 0.0625 kg/ha) was 6.0, the “Herbicidal rating ECHORC” value ([8]; Rate 0.1250 kg/ha) was 6.0 and the “Herbicidal rating ECHORC” value ([8]; Rate 0.2500 kg/ha) was 9.0.
